Data reported in PubChem BioAssay AID248 (DTP/NCI, 2004).
“And” between values parts separate entries of the source, which are not always exact repeats. Equal entries are not always repeated. Inconclusive results and toxic doses are left out. No stated cut-off is given here; in the data, active means T/C of 150% or more; inactive means T/C below 125%.

System: L1210 leukemia ip in BDF1 mice, survival T/C
Assay: NCI In Vivo Anticancer Drug Screen. Data for tumor model L1210 Leukemia (intraperitoneal) in B6D2F1 (BDF1) mice
Settings: endpoint: mean survival time, higher = longer survival
Procedure, shortened: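 Each compound was tested against a transplantable tumor grown in mice. The endpoint was survival, with treated animals benchmarked against vehicle controls as a simple ratio.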

[1] = dose: 100.0 mg/kg/injection, schedule: Q04DX003 (ip), vehicle: acetone
[2] = dose: 100.0 mg/kg/injection, schedule: Q01DX001 (ip), vehicle: saline
[3] = dose: 200.0 mg/kg/injection, schedule: Q01DX001 (ip), vehicle: saline
[4] = dose: 400.0 mg/kg/injection, schedule: Q01DX001 (ip), vehicle: saline
[5] = dose: 100.0 mg/kg/injection, schedule: Q01DX009 (ip), vehicle: Klucel (hydroxypropylcellulose) (HPC)
[6] = dose: 200.0 mg/kg/injection, schedule: Q01DX009 (ip), vehicle: Klucel (hydroxypropylcellulose) (HPC)
[7] = dose: 100.0 mg/kg/injection, schedule: Q04DX002 (ip), vehicle: Klucel (hydroxypropylcellulose) (HPC)
[8] = dose: 200.0 mg/kg/injection, schedule: Q04DX002 (ip), vehicle: Klucel (hydroxypropylcellulose) (HPC)
[9] = dose: 400.0 mg/kg/injection, schedule: Q04DX002 (ip), vehicle: Klucel (hydroxypropylcellulose) (HPC)
[10] = dose: 100.0 mg/kg/injection, schedule: Q04DX003 (ip), vehicle: Klucel (hydroxypropylcellulose) (HPC)
[11] = dose: 200.0 mg/kg/injection, schedule: Q04DX003 (ip), vehicle: Klucel (hydroxypropylcellulose) (HPC)
[12] = dose: 400.0 mg/kg/injection, schedule: Q04DX003 (ip), vehicle: Klucel (hydroxypropylcellulose) (HPC)
[13] = dose: 50.0 mg/kg/injection, schedule: Q01DX001 (ip), vehicle: carboxymethylcellulose (CMC)
[14] = dose: 100.0 mg/kg/injection, schedule: Q01DX001 (ip), vehicle: carboxymethylcellulose (CMC)
[15] = dose: 400.0 mg/kg/injection, schedule: Q01DX001 (ip), vehicle: carboxymethylcellulose (CMC)

Measured: T/C

c1ccc(P(=NC2CCCCC2)(c2ccccc2)c2ccccc2)cc1
inactive: dose: 50.0 mg/kg/injection, schedule: Q04DX003 (ip), vehicle: acetone 96 % of control | [1] 94 % of control

CCC(C)COC(=O)c1ccccc1-c1ccccc1C(=O)OCC(C)CC (configuration not stated)
inactive: dose: 100.0 mg/kg/injection, schedule: Q01DX001 (ip), vehicle: other 96 % of control | dose: 200.0 mg/kg/injection, schedule: Q01DX001 (ip), vehicle: other 98 % of control | dose: 400.0 mg/kg/injection, schedule: Q01DX001 (ip), vehicle: other 96 % of control

O=C(O)c1ccc(OCCc2ccccc2)cc1
inactive: dose: 75.0 mg/kg/injection, schedule: Q01DX001 (ip), vehicle: saline 98 % of control | dose: 75.0 mg/kg/injection, schedule: Q04DX003 (ip), vehicle: saline 103 % of control | dose: 150.0 mg/kg/injection, schedule: Q01DX001 (ip), vehicle: saline 98 % of control | dose: 150.0 mg/kg/injection, schedule: Q04DX003 (ip), vehicle: saline 98 % of control | dose: 300.0 mg/kg/injection, schedule: Q01DX001 (ip), vehicle: saline 95 % of control | dose: 300.0 mg/kg/injection, schedule: Q04DX003 (ip), vehicle: saline 93 % of control

c1ccc(C(CC(c2ccccc2)(c2ccccc2)c2ccccc2)(c2ccccc2)c2ccccc2)cc1
inactive: [2] 96 % of control | [3] 94 % of control | [4] 105 % of control

CCN(CC)c1ccc(C(=O)c2ccc(N(CC)CC)cc2)cc1
inactive: dose: 15.0 mg/kg/injection, schedule: Q01DX Z (ip), vehicle: carboxymethylcellulose (CMC) 88 % of control | dose: 30.0 mg/kg/injection, schedule: Q01DX Z (ip), vehicle: carboxymethylcellulose (CMC) 92 % of control | dose: 60.0 mg/kg/injection, schedule: Q01DX Z (ip), vehicle: carboxymethylcellulose (CMC) 92 % of control and 95 % of control | dose: 120.0 mg/kg/injection, schedule: Q01DX Z (ip), vehicle: carboxymethylcellulose (CMC) 94 % of control and 100 % of control | dose: 240.0 mg/kg/injection, schedule: Q01DX Z (ip), vehicle: carboxymethylcellulose (CMC) 100 % of control | dose: 480.0 mg/kg/injection, schedule: Q01DX Z (ip), vehicle: carboxymethylcellulose (CMC) 118 % of control

O=[N+]([O-])c1cccc(C=Nc2cc(Cl)ccc2O)c1
inactive: [5] 95 % of control and 86 % of control | [6] 96 % of control and 97 % of control | dose: 400.0 mg/kg/injection, schedule: Q01DX009 (ip), vehicle: Klucel (hydroxypropylcellulose) (HPC) 100 % of control and 91 % of control

CCCCCCCCCCOC(CN)C(Cl)(Cl)Cl (configuration not stated)
inactive: dose: 12.5 mg/kg/injection, schedule: Q01DX009 (ip), vehicle: saline with Tween-80 93 % of control | dose: 12.5 mg/kg/injection, schedule: Q04DX003 (ip), vehicle: saline with Tween-80 98 % of control | dose: 25.0 mg/kg/injection, schedule: Q01DX009 (ip), vehicle: saline with Tween-80 97 % of control | dose: 25.0 mg/kg/injection, schedule: Q04DX003 (ip), vehicle: saline with Tween-80 101 % of control | dose: 50.0 mg/kg/injection, schedule: Q04DX003 (ip), vehicle: saline with Tween-80 103 % of control

Cc1nc([N+](=O)[O-])cn1CCN1CCOCC1
inactive: dose: 50.0 mg/kg/injection, schedule: Q01DX009 (ip), vehicle: Klucel (hydroxypropylcellulose) (HPC) 102 % of control | [5] 94 % of control | [7] 92 % of control | [6] 102 % of control | [8] 105 % of control | [9] 105 % of control

CCCCCCCCCCCCCCOc1ccc(Cc2ccccc2)cc1
inactive: [10] 91 % of control | [11] 90 % of control | [12] 88 % of control

CC/C=C(CC)/C(CC)=C(/C#N)CC
inactive: dose: 100.0 mg/kg/injection, schedule: Q04DX003 (ip), vehicle: saline 108 % of control | dose: 200.0 mg/kg/injection, schedule: Q04DX003 (ip), vehicle: saline 93 % of control | dose: 400.0 mg/kg/injection, schedule: Q04DX003 (ip), vehicle: saline 98 % of control

CC#CC(=O)c1ccccc1
inactive: dose: 7.5 mg/kg/injection, schedule: Q04DX003 (ip), vehicle: saline 97 % of control | dose: 15.0 mg/kg/injection, schedule: Q04DX003 (ip), vehicle: saline 94 % of control | dose: 30.0 mg/kg/injection, schedule: Q04DX003 (ip), vehicle: saline 95 % of control

CC(=O)Nc1cc(Cl)cc2c1-c1ccc(Cl)cc1C2N(C)C (configuration not stated)
inactive: [13] 98 % of control | [14] 90 % of control | dose: 200.0 mg/kg/injection, schedule: Q01DX001 (ip), vehicle: carboxymethylcellulose (CMC) 106 % of control | [15] 98 % of control

COC(=O)C1CC2c3ccccc3C1c1ccccc12 (configuration not stated)
inactive: dose: 100.0 mg/kg/injection, schedule: Q01DX009 (ip), vehicle: saline with Tween-80 110 % of control | [10] 108 % of control | dose: 176.0 mg/kg/injection, schedule: Q01DX001 (ip), vehicle: carboxymethylcellulose (CMC) 96 % of control and 92 % of control | dose: 200.0 mg/kg/injection, schedule: Q01DX009 (ip), vehicle: saline with Tween-80 89 % of control | [11] 97 % of control | dose: 264.0 mg/kg/injection, schedule: Q01DX001 (ip), vehicle: carboxymethylcellulose (CMC) 93 % of control | [15] 95 % of control | dose: 400.0 mg/kg/injection, schedule: Q01DX009 (ip), vehicle: saline with Tween-80 95 % of control | [12] 93 % of control | dose: 600.0 mg/kg/injection, schedule: Q01DX001 (ip), vehicle: carboxymethylcellulose (CMC) 98 % of control

O=C1C2C3CCC(C4OCCO4)(O3)C2C(=O)N1Cc1ccccc1 (configuration not stated)
inactive: [7] 107 % of control | [8] 103 % of control | [9] 96 % of control

CN(C)CC(C)(C)C(=O)c1ccccc1
inactive: dose: 25.0 mg/kg/injection, schedule: Q04DX002 (ip), vehicle: saline 100 % of control | dose: 50.0 mg/kg/injection, schedule: Q04DX002 (ip), vehicle: saline 100 % of control | dose: 100.0 mg/kg/injection, schedule: Q04DX002 (ip), vehicle: saline 104 % of control

[N-]=[N+]=CC(=O)CCC(=O)C=[N+]=[N-]
inactive: dose: 0.75 mg/kg/injection, schedule: Q01DX009 (ip), vehicle: other 98 % of control | dose: 1.5 mg/kg/injection, schedule: Q01DX009 (ip), vehicle: other 116 % of control | dose: 6.0 mg/kg/injection, schedule: Q01DX009 (ip), vehicle: other 116 % of control

O=C1NC(=S)S/C1=C/c1ccc(/C=C2/SC(=S)NC2=O)cc1
inactive: [13] 92 % of control | [14] 94 % of control

Cc1ccc(C(=O)CCN2CCOCC2)c(C)c1
inactive: [2] 102 % of control | [3] 96 % of control | [4] 96 % of control

COCCOCC(=O)O
inactive: dose: 100.0 mg/kg/injection, schedule: Q04DX002 (ip), vehicle: saline with Tween-80 101 % of control | dose: 200.0 mg/kg/injection, schedule: Q04DX002 (ip), vehicle: saline with Tween-80 96 % of control | dose: 400.0 mg/kg/injection, schedule: Q04DX002 (ip), vehicle: saline with Tween-80 108 % of control

O=[N+]([O-])c1cc([N+](=O)[O-])c(NC(c2ccccc2)C(O)c2ccccc2)c([N+](=O)[O-])c1 (configuration not stated)
inactive: [1] 98 % of control | dose: 200.0 mg/kg/injection, schedule: Q04DX003 (ip), vehicle: acetone 96 % of control | dose: 400.0 mg/kg/injection, schedule: Q04DX003 (ip), vehicle: acetone 93 % of control

O=C1CCCC(c2ccccc2)O1 (configuration not stated)
inactive: [7] 108 % of control | [8] 101 % of control | [9] 101 % of control

O=C(Nc1ccc(Cl)cc1)Oc1c(Cl)cc(Cl)c(Cl)c1[N+](=O)[O-]
inactive: dose: 100.0 mg/kg/injection, schedule: Q04DX002 (ip), vehicle: gum acacia 94 % of control | dose: 200.0 mg/kg/injection, schedule: Q04DX002 (ip), vehicle: gum acacia 88 % of control
